This note sets out measurements from patent publication US12404285B2, “KRAS G12D proteolysis targeting chimeras” (PAQ Therapeutics Inc., priority 2022, dated 2025).

The target of this assay is T1, KRAS (G12D)-HiBit in AsPc-1-KRAS (G12D)-HiBit-KI cell (Homo sapiens, UniProt P01116, G12D).
T1 construct: host or cells: AsPc-1-KRAS (G12D)-HiBit-KI cells (knock-in line)
T1 sequence (P01116 1-188 isoform P01116-2 G12D): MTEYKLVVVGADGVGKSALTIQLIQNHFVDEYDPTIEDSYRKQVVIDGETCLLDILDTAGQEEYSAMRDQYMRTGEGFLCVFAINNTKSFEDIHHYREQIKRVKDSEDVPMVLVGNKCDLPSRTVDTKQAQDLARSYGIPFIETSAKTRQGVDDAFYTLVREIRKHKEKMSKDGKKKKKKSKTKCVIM
Put plainly: G12D HiBit assay. The assay is classed as cell-based. The conditions noted are these: 24 hours compound treatment, absolute DC50, read-out: Average PHA DC50. As for the experimental part: Day 1. Prepared the culture medium for AsPc-1-KRAS (G12D)-HiBit-KI cell (Pharmaron) using RPMI 1640 medium (Gibco, 11875093) with 10% FBS (Gibco, 10099141C) and 1% Penicillin-Streptomycin Liquid (Solarbio, P1400). Cultivated cells in T-75 flasks in a cell culture incubator (Thermo, Model: 371) at 37° C., 5% CO2. Allowed cells to reach approximately 80% confluence before splitting. Rinsed cultivated cells in T-75 flasks with 5 mL PBS (Solarbio, P1020-500). Aspirated off PBS, added 1.5 mL trypsin (Invitrogen, #25300), and incubated at 37° C. for approximately 5 minutes or until the cells detached. Inactivated trypsin by adding excessive serum containing medium. Harvested the cells from flask into cell culture medium and counted the cell number. Seeded AsPc-1-KRAS (G12D)-HiBit-KI cell into 384-well plate (Corning, 3570) (cell density: 5×10^3 cells/well in 50 μL medium) in RPMI 1640 medium and incubated overnight at 37° C. and 5% CO2.
Day 2. Test compounds were dissolved at 0.3 mM in DMSO (Solarbio, D8371) as stock solution. Transferred 45 μL of stock solution to a 384-well plate (Labcyte, 001-14555). Performed 3-fold, 10-points dilution via transferring 15 μL compound into 30 μL DMSO by using TECAN liquid handler (TECAN, Freedom EVO200). The compound plates were spin at room temperature at 1,000 RPM for 1 minute (Eppendorf, 5810R). Transferred 50 nL of diluted compounds from compound source plate into the cell plate by Echo (Labcyte, 550) to achieve final concentrations of 300 nM, 100 nM, 33.3 nM, 11.1 nM, 3.7 nM, 1.23 nM, 0.41 nM, 0.14 nM, 0.046 nM and 0.015 nM, then mixed the cell plate on a plate shaker (Yoning, WZ-4) for 15 seconds at 900 rpm. After compound treatment for 24 hours, removed the plate from incubators and equilibrated at room temperature for 15 minutes. Prepared the HiBit reagent (Promega, N3040) by mixing 10 mL of Nano-Glo®-HiBiT Lytic Buffer with 200 μL of Nano-Glo®-HiBiT Lytic Substrate and 100 μL of LgBiT Protein. Added 20 μL of HiBit reagent into each well of the cell plate and spun the plates at room temperature at 1,000 RPM for 1 minute. Then shook the plates at 600 RPM at room temperature for 20 minutes using a plate shaker (Yoning, WZ-4), and read the luminescence by EnVision (PerkinElmer, 2105-0020).
The inhibition activity was calculated using the following formula: HiBit-G12D level (%)=100%×[Luminescence(Sample)/Mean of Luminescence (HC)] where HC (high control) is obtained from cells treated with 0.1% DMSO only.
Absolute DC50 was calculated by fitting the curve using GraphPad Prism v8.0.2 (analyis 263): Y=Bottom+(100−Bottom)/(1+10^(Log AbsoluteIC50−X)*HillSlope+log((100−Bottom)/(50−Bottom)−1)))
The data are reported in Table 3, wherein “+++”=DC50 less than 100 nM, “++”=DC50 greater than or equal to 100 nM and less than 300 nM; “+”=DC50 greater than or equal to 300 nM.
Regarding `C#Cc1c(F)ccc2cccc(-c3ncc4c(N5CC6CCC(C5)N6)nc(OC[C@@]56CCCN5[C@H](COC(=O)N5CCC(C7CCN(Cc8ccc9c(c8)n(C)c(=O)n9C8CCC(=O)NC8=O)CC7)CC5)CC6)nc4c3F)c12` (stereo partly drawn) [Compound 55, [(3S,8S)-8-[[4-(3,8-Diazabicyclo[3.2.1]octan-3-yl)-7-(8-ethynyl-7-fluoro-1-naphthyl)-8-fluoro-pyrido[4,3-d]pyrimidin-2-yl]oxymethyl]-1,2,3,5,6,7-hexahydropyrrolizin-3-yl]methyl 4-[1-[[1-(2,6-dioxo-3-piperidyl)-3-methyl-2-oxo-benzimidazol-5-yl]methyl]-4-piperidyl]piperidine-1-carboxylate], the DC50 was less than 100 nM.
As for `C#Cc1c(F)ccc2cccc(-c3ncc4c(N5CC6CCC(C5)N6)nc(OC[C@@]56CCCN5[C@H](COC(=O)N5CCC(N7CCN(Cc8ccc9c(c8)n(C)c(=O)n9C8CCC(=O)NC8=O)CC7)CC5)CC6)nc4c3F)c12` (stereo partly drawn) [Compound 56, [(3S,8S)-8-[[4-(3,8-Diazabicyclo[3.2.1]octan-3-yl)-7-(8-ethynyl-7-fluoro-1-naphthyl)-8-fluoro-pyrido[4,3-d]pyrimidin-2-yl]oxymethyl]-1,2,3,5,6,7-hexahydropyrrolizin-3-yl]methyl 4-[4-[[1-(2,6-dioxo-3-piperidyl)-3-methyl-2-oxo-benzimidazol-5-yl]methyl]piperazin-1-yl]piperidine-1-carboxylate], the figure is less than 100 nM; as for `C#Cc1c(F)ccc2cccc(-c3ncc4c(N5CC6CCC(C5)N6)nc(OC[C@@]56CCCN5[C@H](COC(=O)N5CCC(OCCCCCCc7cccc8c7n(C)c(=O)n8C7CCC(=O)NC7=O)CC5)CC6)nc4c3F)c12` (stereo partly drawn) [Compound 58, [(3S,8S)-8-[[4-(3,8-Diazabicyclo[3.2.1]octan-3-yl)-7-(8-ethynyl-7-fluoro-1-naphthyl)-8-fluoro-pyrido[4,3-d]pyrimidin-2-yl]oxymethyl]-1,2,3,5,6,7-hexahydropyrrolizin-3-yl]methyl 4-[6-[1-(2,6-dioxo-3-piperidyl)-3-methyl-2-oxo-benzimidazol-4-yl]hexoxy]piperidine-1-carboxylate], less than 100 nM.
As for `C#Cc1c(F)ccc2cccc(-c3ncc4c(N5CC6CCC(C5)N6)nc(OC[C@@]56CCCN5[C@H](COC(=O)N5CCC(OCCCCCCCc7cccc8c7n(C)c(=O)n8C7CCC(=O)NC7=O)CC5)CC6)nc4c3F)c12` (stereo partly drawn) [Compound 59], the figure is less than 100 nM; as for `C#Cc1c(F)ccc2cccc(-c3ncc4c(N5CC6CCC(C5)N6)nc(OC[C@@]56CCCN5[C@H](COC(=O)N5CCC7(CCC(CCc8cccc9c8n(C)c(=O)n9C8CCC(=O)NC8=O)CC7)CC5)CC6)nc4c3F)c12` (stereo partly drawn) [Compound 60, [(3S,8S)-8-[[4-(3,8-Diazabicyclo[3.2.1]octan-3-yl)-7-(8-ethynyl-7-fluoro-1-naphthyl)-8-fluoro-pyrido[4,3-d]pyrimidin-2-yl]oxymethyl]-1,2,3,5,6,7-hexahydropyrrolizin-3-yl]methyl 9-[2-[1-(2,6-dioxo-3-piperidyl)-3-methyl-2-oxo-benzimidazol-4-yl]ethyl]-3-azaspiro[5.5]undecane-3-carboxylate], 100 to 300 nM.
For `C#Cc1c(F)ccc2cccc(-c3ncc4c(N5CC6CCC(C5)N6)nc(OC[C@@]56CCCN5[C@H](COC(=O)N5CC7(CC(CCc8cccc9c8n(C)c(=O)n9C8CCC(=O)NC8=O)C7)C5)CC6)nc4c3F)c12` (stereo partly drawn) [Compound 61, [(3S,8S)-8-[[4-(3,8-diazabicyclo[3.2.1]octan-3-yl)-7-(8-ethynyl-7-fluoro-1-naphthyl)-8-fluoro-pyrido[4,3-d]pyrimidin-2-yl]oxymethyl]-1,2,3,5,6,7-hexahydropyrrolizin-3-yl]methyl 6-[2-[1-(2,6-dioxo-3-piperidyl)-3-methyl-2-oxo-benzimidazol-4-yl]ethyl]-2-azaspiro[3.3]heptane-2-carboxylate], the DC50 is 100 to 300 nM.
The value for `C#Cc1c(F)ccc2cccc(-c3ncc4c(N5CC6CCC(C5)N6)nc(OC[C@@]56CCCN5[C@H](COC(=O)N5CCC(OCC7CCN(Cc8cccc9c8n(C)c(=O)n9C8CCC(=O)NC8=O)CC7)CC5)CC6)nc4c3F)c12` (stereo partly drawn) [Compound 62, [(3S,8S)-8-[[4-(3,8-Diazabicyclo[3.2.1]octan-3-yl)-7-(8-ethynyl-7-fluoro-1-naphthyl) 8-fluoro-pyrido[4,3-d]pyrimidin-2-yl]oxymethyl]-1,2,3,5,6,7-hexahydropyrrolizin-3-yl]methyl4-[[1-[[1-(2,6-dioxo-3-piperidyl)-3-methyl-2-oxo-benzimidazol-4-yl]methyl]-4-piperidyl]methoxy]piperidine-1-carboxylate] was less than 100 nM.
`C#Cc1c(F)ccc2cccc(-c3ncc4c(N5CC6CCC(C5)N6)nc(OC[C@@]56CCCN5[C@H](COC(=O)N5CCC(COC7CN(Cc8cccc9c8n(C)c(=O)n9C8CCC(=O)NC8=O)C7)CC5)CC6)nc4c3F)c12` (stereo partly drawn) [Compound 63, [(3S,8S)-8-[[4-(3,8-diazabicyclo[3.2.1]octan-3-yl)-7-(8-ethynyl-7-fluoro-1-naphthyl)-8-fluoro-pyrido[4,3-d]pyrimidin-2-yl]oxymethyl]-1,2,3,5,6,7-hexahydropyrrolizin-3-yl]methyl4-[[1-[[1-(2,6-dioxo-3-piperidyl)-3-methyl-2-oxo-benzimidazol-4-yl]methyl]azetidin-3-yl]oxymethyl]piperidine-1-carboxylate]: the DC50 lay within 100 to 300 nM.
As for `C#Cc1c(F)ccc2cccc(-c3ncc4c(N5CC6CCC(C5)N6)nc(OC[C@@]56CCCN5[C@H](COC(=O)N5CCN(C7CCN(Cc8cccc9c8n(C)c(=O)n9C8CCC(=O)NC8=O)CC7)CC5)CC6)nc4c3F)c12` (stereo partly drawn) [Compound 64, [(3S,8S)-8-[[4-(3,8-Diazabicyclo[3.2.1]octan-3-yl)-7-(8-ethynyl-7-fluoro-1-naphthyl)-8-fluoro-pyrido[4,3-d]pyrimidin-2-yl]oxymethyl]-1,2,3,5,6,7-hexahydropyrrolizin-3-yl]methyl 4-[1-[[1-(2,6-dioxo-3-piperidyl)-3-methyl-2-oxo-benzimidazol-4-yl]methyl]-4-piperidyl]piperazine-1-carboxylate], the DC50 was less than 100 nM.
As for `C#Cc1c(F)ccc2cccc(-c3ncc4c(N5CC6CCC(C5)N6)nc(OC[C@@]56CCCN5[C@H](COC(=O)N5CCC(N7CCC(Cc8cccc9c8n(C)c(=O)n9C8CCC(=O)NC8=O)CC7)CC5)CC6)nc4c3F)c12` (stereo partly drawn) [Compound 65, [(3S,8S)-8-[[4-(3,8-Diazabicyclo[3.2.1]octan-3-yl)-7-(8-ethynyl-7-fluoro-1-naphthyl)-8-fluoro-pyrido[4,3-d]pyrimidin-2-yl]oxymethyl]-1,2,3,5,6,7-hexahydropyrrolizin-3-yl]methyl 4-[4-[[1-(2,6-dioxo-3-piperidyl)-3-methyl-2-oxo-benzimidazol-4-yl]methyl]-1-piperidyl]piperidine-1-carboxylate], the figure is 100 to 300 nM.
The value for `C#Cc1c(F)ccc2cccc(-c3ncc4c(N5CC6CCC(C5)N6)nc(OC[C@@]56CCCN5[C@H](COC(=O)N5CCC(N7CCC(Oc8cccc9c8n(C)c(=O)n9C8CCC(=O)NC8=O)CC7)CC5)CC6)nc4c3F)c12` (stereo partly drawn) [Compound 66] was less than 100 nM; that for `C#Cc1c(F)ccc2cccc(-c3ncc4c(N5CC6CCC(C5)N6)nc(OC[C@@]56CCCN5[C@H](COC(=O)N5CCC7(CC5)CC(CCc5ccc8c(c5)n(C)c(=O)n8C5CCC(=O)NC5=O)C7)CC6)nc4c3F)c12` (stereo partly drawn) [Compound 67] was less than 100 nM.
